Reference: the CheMixHub viscosity set
“And” between values parts separate entries of the source, which are not always exact repeats. Equal entries are not always repeated.

Assay: xn = mol fraction of the nth substance listed

CCC(C)O (centres undefined) + CO
298.15 K, 101.33 kPa
Settings | viscosity [mPa·s]
x2 = 0.1153 | 2.681
x2 = 0.2124 | 2.341
x2 = 0.2972 | 2.063
x2 = 0.3974 | 1.765
x2 = 0.4714 | 1.563
x2 = 0.5959 | 1.263
x2 = 0.671 | 1.102
x2 = 0.8045 | 0.852
x2 = 0.8927 | 0.711

Cc1ccc(O)cc1 + CN(C)C=O
viscosity [mPa·s], 101 kPa
Settings | 303.15 K | 308.15 K | 313.15 K | 318.15 K
x1 = 0.0758 | 0.908 | 0.787 | 0.769 | 0.732
x1 = 0.1553 | 1.098 | 0.988 | 0.913 | 0.845
x1 = 0.2404 | 1.444 | 1.208 | – | 1.087
x1 = 0.3298 | 1.832 | 1.611 | 1.465 | 1.339
x1 = 0.4247 | 2.452 | 2.165 | 1.952 | 1.755
x1 = 0.5155 | – | 2.886 | – | –
x1 = 0.5255 | 3.351 | – | – | 2.273
x1 = 0.5256 | – | – | 2.562 | –
x1 = 0.6327 | 4.534 | 3.905 | 3.375 | 2.954
x1 = 0.7472 | 6.256 | 5.298 | 4.489 | 3.852
x1 = 0.8692 | 7.994 | 6.386 | 5.777 | 4.485

Cc1ccc(O)cc1 + CS(C)=O
viscosity [mPa·s], 101 kPa
Settings | x1 = 0.0702 | x1 = 0.1453 | x1 = 0.2257 | x1 = 0.3119 | x1 = 0.4047 | x1 = 0.505 | x1 = 0.5778 | x1 = 0.7312 | x1 = 0.8595
303.15 K | 2.036 | 2.307 | 2.913 | 3.456 | 4.277 | 5.056 | 6.524 | 7.908 | 9.499
308.15 K | 1.792 | 2.04 | 2.565 | 3.062 | 3.709 | 4.324 | 5.403 | 6.543 | 7.655
313.15 K | 1.604 | 1.833 | 2.293 | 2.698 | 3.24 | 3.769 | 4.649 | 5.745 | 6.083
318.15 K | 1.476 | 1.668 | 2.054 | 2.417 | 2.857 | 3.328 | 4.01 | 4.945 | 5.111

C1CC[NH2+]C1.CCCCCCCC(=O)[O-] + CCO
viscosity [mPa·s], 101 kPa
Settings | x1 = 0.1638 | x1 = 0.3038 | x1 = 0.4308 | x1 = 0.5046 | x1 = 0.5837 | x1 = 0.7453 | x1 = 0.838 | x1 = 0.9223
293.15 K | 3.7 | 8.2 | 14 | 17.06 | 23.1 | 36.6 | 47.3 | 58.2
298.15 K | 3.85 | 7.02 | 12.99 | 16.3 | 21.3 | 34.08 | 44.23 | 52.4
303.15 K | 3 | 5.7 | 10.5 | 13.39 | 17.6 | 29.14 | 36.3 | 42.7
308.15 K | 2.9 | 7.3 | 11.21 | 14.5 | 18.1 | 25.4 | 31.3 | 36.4
313.15 K | 2.7 | 6.8 | 9.8 | 11.79 | 15 | 22 | 26.8 | 30.3

CC1(C)SC2C(NC(=O)C(N)c3ccccc3)C(=O)N2C1C(=O)O (centres undefined) + O
viscosity, 101 kPa
Settings | x1 = 9e-06 | x1 = 1e-05 | x1 = 2e-05 | x1 = 3.2e-05 | x1 = 3.6e-05 | x1 = 4e-05 | x1 = 5e-05 | x1 = 6.8e-05 | x1 = 7e-05 | x1 = 7.2e-05
305.15 K | 0.7656 mPa·s | 0.7569 mPa·s | 0.7618 mPa·s and 0.763 mPa·s | 0.7637 mPa·s | 0.7729 mPa·s | 0.7702 mPa·s | 0.7649 mPa·s | 0.7656 mPa·s | 0.773 mPa·s | 0.7701 mPa·s
310.15 K | 0.7019 mPa·s | 0.6941 mPa·s | 0.6924 mPa·s and 0.6965 mPa·s | 0.6948 mPa·s | 0.6993 mPa·s | 0.6989 mPa·s | 0.6964 mPa·s | 0.6976 mPa·s | 0.7041 mPa·s | 0.7032 mPa·s
315.15 K | 0.6419 mPa·s | 0.6361 mPa·s | 0.6342 mPa·s and 0.6376 mPa·s | 0.6356 mPa·s | 0.6442 mPa·s | 0.6407 mPa·s | 0.6381 mPa·s | 0.6398 mPa·s | 0.6421 mPa·s | 0.6399 mPa·s

O=S1(=O)CCCC1 + CC(C)O
viscosity [mPa·s], 101 kPa
Settings | x1 = 0.0756 | x1 = 0.1606 | x1 = 0.2446 | x1 = 0.3418 | x1 = 0.4362 | x1 = 0.5514 | x1 = 0.6552 | x1 = 0.754 | x1 = 0.8754
303.15 K | 1.634 | 1.705 | 1.823 | 2.067 | 2.386 | 2.94 | 3.662 | 4.701 | 6.713
308.15 K | 1.438 | 1.489 | 1.616 | 1.837 | 2.128 | 2.626 | 3.274 | 4.19 | 5.992
313.15 K | – | 1.324 | 1.442 | 1.644 | 1.908 | 2.356 | 2.945 | 3.754 | 5.332

Cc1cccc(C)c1 + CCCCCCCCCCO
viscosity [mPa·s], 101 kPa
Settings | 298.15 K | 308.15 K
x1 = 0.0627 | 9.938 | 6.871
x1 = 0.1424 | 7.856 | 5.489
x1 = 0.2052 | 6.481 | 4.577
x1 = 0.2618 | 5.435 | 3.88
x1 = 0.3217 | 4.497 | 3.243
x1 = 0.3934 | 3.563 | 2.622
x1 = 0.4989 | 2.534 | 1.912
x1 = 0.5581 | 2.095 | 1.617
x1 = 0.6343 | 1.645 | 1.299
x1 = 0.7131 | 1.292 | 1.045
x1 = 0.7991 | 1.001 | 0.835
x1 = 0.8465 | 0.874 | 0.742
x1 = 0.8964 | 0.762 | 0.662
x1 = 0.9421 | 0.674 | 0.599
